Data published in patent US10081632B2, “Substituted tetrahydropyrido[3′,2′:4,5]pyrrolo[1,2-α]pyrazine-2-carboxamides as RSK inhibitors” (Phoenix Molecular Designs, priority 2016, dated 2018).

Assays:
[1] = Solubility assessment, 20 mg/ml solution; type: physicochemical; conditions: 100 mM in DMSO diluted in DMEM growth media to 20 mg/ml
Protocol: Solubility is an important property for therapeutic drug candidates. Poor solubility can lead to low bioavailability resulting in suboptimal drug delivery. It can also prevent the evaluation of test agents in animals because the concentration(s) needed to achieve the desired effect cannot be achieved to poor solubility. For solubility assessments, small molecules targeting RSK were compared. For these assessments, 100 mM solutions of the compounds dissolved in DMSO were diluted in DMEM growth media (Life Technologies) supplemented with fetal bovine serum (FBS, Life Technologies) and 100 units/ml penicillin and 100 units/ml streptomycin (Life Technologies) to make 20 mg/ml solutions. Once diluted, the solutions were vortexed and examined for the formation of precipitates. […] For Compound 26, a 100 mM solution of the compound dissolved in DMSO was diluted in phosphate buffered saline (Life Technologies) to make a 20 mg/ml solution. The stock of […] was chosen because this is the upper end of what would be required to dose mice for a range of studies including MTD, PK, PD and efficacy. The pH of this solution was determined to be 2, as previously described. […] At high concentrations some RSK inhibitors were highly soluble while others were not. Compound 0 is (R)—N-(1-benzyl-1H-pyrazol-4-yl)-9-methyl-6-oxo-6,7,8,9-tetrahydropyrido[3′,2′:4,5]pyrrolo[1,2-a]pyrazine-2-carboxamide. Compound 0 was not soluble, whereas Compounds 18, 20, 21, 25 and 26 were soluble under the same conditions (Table 5).

[2] = test system: 4T1 cells; experiment: Monolayer growth inhibition, Alamar blue assay; type: cell-based; conditions: Mus musculus; 4T1 (TNBC), 5 days, single dose on day 1
Source text: (§1) In all instances a single dose was given on day 1 of the experiment.

[3] = test system: HCC1143 cells; experiment: Monolayer growth inhibition, Alamar blue assay; type: cell-based; conditions: Homo sapiens; HCC1143 (TNBC), 5 days, single dose on day 1
Source text: as §1

[4] = test system: HCC1937 cells; experiment: Monolayer growth inhibition, Alamar blue assay; type: cell-based; conditions: Homo sapiens; HCC1937 (TNBC, BRCA Mutant), 5 days, single dose on day 1
Source text: as §1

[5] = test system: JIMT-1 cells; experiment: Monolayer growth inhibition, Alamar blue assay; type: cell-based; conditions: Homo sapiens; JIMT-1 (HER2), 5 days, single dose on day 1
Source text: as §1

[6] = test system: MDA-MB-231 cells; experiment: Monolayer growth inhibition, Alamar blue assay; type: cell-based; conditions: Homo sapiens; MDA-MB-231 (TNBC), 5 days, single dose on day 1
Source text: as §1

[7] = test system: MDA-MB-435 cells; experiment: Monolayer growth inhibition, Alamar blue assay; type: cell-based; conditions: Homo sapiens; MDA-MB-435 (Melanoma), 5 days, single dose on day 1
Source text: as §1

[8] = test system: MDA-MB-468 cells; experiment: Monolayer growth inhibition, Alamar blue assay; type: cell-based; conditions: Homo sapiens; MDA-MB-468 (TNBC), 5 days, single dose on day 1
Source text: as §1

[9] = test system: PC3 cells; experiment: Monolayer growth inhibition, Alamar blue assay; type: cell-based; conditions: Homo sapiens, PC-3; PC3 (Prostate), 5 days, single dose on day 1
Source text: as §1

[10] = test system: SUM149 cells; experiment: Monolayer growth inhibition, Alamar blue assay; type: cell-based; conditions: Homo sapiens; SUM149 (TNBC, BRCA Mutant), 5 days, single dose on day 1
Source text: as §1

[11] = test system: SUM149-PTXR cells; experiment: Monolayer growth inhibition, Alamar blue assay; type: cell-based, Human; conditions: Homo sapiens; SUM149-PTXR (TNBC, BRCA Mutant), 5 days, single dose on day 1
Source text: as §1

[12] = test system: T47D cells; experiment: Monolayer growth inhibition, Alamar blue assay; type: cell-based, Human; conditions: Homo sapiens; T47D (ER/PR), 5 days, single dose on day 1
Source text: as §1

[13] = test system: All cell lines; experiment: Monolayer growth inhibition, Alamar blue assay, range over all cell lines; type: cell-based; conditions: 120 h; range of IC50 over all cell lines of the table; read-out: IC50 Values - Alamar Blue (5 Days), Range, All
Source text: as §1

[14] = test system: HCC1937 cells; experiment: Monolayer growth inhibition, crystal violet assay; type: cell-based; conditions: Homo sapiens; HCC1937 (TNBC, BRCA Mutant), 5 days, single dose on day 1
Source text: (§2) In all instances a single dose was given on day 1 of the experiment. […] Complete (100%) growth suppression was achievable with several of the compounds in multiple different cell lines.

[15] = test system: JIMT-1 cells; experiment: Monolayer growth inhibition, crystal violet assay; type: cell-based; conditions: Homo sapiens; JIMT-1 (HER2), 5 days, single dose on day 1
Source text: as §2

[16] = test system: MDA-MB-468 cells; experiment: Monolayer growth inhibition, crystal violet assay; type: cell-based; conditions: Homo sapiens; MDA-MB-468 (TNBC), 5 days, single dose on day 1
Source text: as §2

[17] = test system: T47D cells; experiment: Monolayer growth inhibition, crystal violet assay; type: cell-based; conditions: Homo sapiens; T47D (ER/PR), 5 days, single dose on day 1
Source text: as §2

[18] = test system: 4T1 cells; experiment: Monolayer growth inhibition, crystal violet assay; type: cell-based; conditions: Mus musculus; 4T1 (TNBC), 5 days, single dose on day 1
Source text: as §1

[19] = test system: HCC1143 cells; experiment: Monolayer growth inhibition, crystal violet assay; type: cell-based; conditions: Homo sapiens; HCC1143 (TNBC), 5 days, single dose on day 1
Source text: as §1

[20] = test system: MDA-MB-231 cells; experiment: Monolayer growth inhibition, crystal violet assay; type: cell-based; conditions: Homo sapiens; MDA-MB-231 (TNBC), 5 days, single dose on day 1
Source text: as §1

[21] = test system: MDA-MB-435 cells; experiment: Monolayer growth inhibition, crystal violet assay; type: cell-based; conditions: Homo sapiens; MDA-MB-435 (Melanoma), 5 days, single dose on day 1
Source text: as §1

[22] = test system: PC3 cells; experiment: Monolayer growth inhibition, crystal violet assay; type: cell-based; conditions: Homo sapiens, PC-3; PC3 (Prostate), 5 days, single dose on day 1
Source text: as §1

[23] = test system: SUM149 cells; experiment: Monolayer growth inhibition, crystal violet assay; type: cell-based; conditions: Homo sapiens; SUM149 (TNBC, BRCA Mutant), 5 days, single dose on day 1
Source text: as §1

[24] = test system: SUM149-PTXR cells; experiment: Monolayer growth inhibition, crystal violet assay; type: cell-based; conditions: Homo sapiens; SUM149-PTXR (TNBC, BRCA Mutant), 5 days, single dose on day 1
Source text: as §1

[25] = test system: All cell lines; experiment: Monolayer growth inhibition, crystal violet assay, range over all cell lines; type: cell-based; conditions: 120 h; range of IC50 over all cell lines of the table; read-out: IC50 Values - Crystal Violet (5 Days), Range, All
Source text: as §2

[26] = test system: MDA-MB-231 cells; experiment: Soft agar growth inhibition assay; type: cell-based; conditions: Homo sapiens; MDA-MB-231 (TNBC), 14-22 days; read-out: IC50 Values - Soft Agar (14-22 Days)
[27] = test system: MDA-MB-468 cells; experiment: Soft agar growth inhibition assay; type: cell-based, Human; conditions: Homo sapiens; MDA-MB-468 (TNBC), 14-22 days
[28] = test system: 4T1 cells; experiment: Soft agar growth inhibition assay; type: cell-based; conditions: Mus musculus; 4T1 (TNBC), 14-22 days; read-out: IC50 Values - Soft Agar (14-22 Days)
Protocol: Two agar (Alfa Aesar) solutions (0.8% w/v and 0.4% w/v) were prepared in ultrapure water. The 0.8% agar solution was mixed in equal volumes with 2× media previously prepared from powder (Life Technologies) following the manufacturer's instructions and filter sterilized. The 0.8% agar and media solution was added to 24 well plates (Mandel Scientific) at 500 μl per well. The plates were placed in a humidified incubator at 37° C. with 5% CO2. Next, the 0.4% agar solution was mixed in equal volumes with 2× media. Breast cancer cell lines were added to this solution to achieve a final concentration of 2×10^4 cells per well and […] was added to each well on top of the bottom agar and media layer. […] The plates were returned to the incubator for 10-32 days, with a re-dosing of compounds or DMSO every 7 days. After 10-32 days, colonies were counted in 3 different fields of view for each well.
Representative compounds described herein were tested in the soft agar growth inhibition assay against the 4T1 breast cancer cell line.

[29] = test system: phosphorylated Y-box binding protein-1 (YB-1) at serine 102 (P-YB-1S102); experiment: Immunoblotting of cell signalling, loss of P-YB-1 in MDA-MB-231 cells; conditions: Homo sapiens, MDA-MB-231, read-out: IC50 values for P-YB-1

SMILES	Solubility, 20 mg/ml Solution [1]	IC50 [2] [µM]	IC50 [3] [µM]	IC50 [4] [µM]	IC50 [5] [µM]	IC50 [6] [µM]	IC50 [7] [µM]	IC50 [8] [µM]	IC50 [9] [µM]	IC50 [10] [µM]	IC50 [11] [µM]	IC50 [12] [µM]	IC50 [13] [µM]	IC50 [14] [µM]	IC50 [15] [µM]	IC50 [16] [µM]	IC50 [17] [µM]	IC50 [18] [µM]	IC50 [19] [µM]	IC50 [20] [µM]	also measured
C[C@@H]1CNC(=O)c2cc3ccc(C(=O)Nc4cnn(Cc5ccc(C(F)(F)F)cc5)c4)nc3n21 [Compound 22, (R)-9-methyl-6-oxo-N-(1-(4-(trifluoromethyl)benzyl)-1H-pyrazol-4-yl)-6,7,8,9-tetrahydropyrido[3′,2′:4,5]pyrrolo[1,2-a]pyrazine-2-carboxamide]	Precipitate	4.5 ± 1	9.9 ± 1	12.6 ± 3.5	17.1 ± 2.4	13.9 ± 3.5	6.8 ± 6.4	7.5 ± 2.1	9.2 ± 1.5	7.7 ± 4.6	7.8 ± 4.6	4.8 ± 0.9	4.5 to 17.1	9.9 ± 3	14.2 ± 5.1	6.6 ± 2.3	4.3 ± 2.1	2.6 ± 1.5	6.6 ± 3.1	6.6 ± 2.1	IC50 [21]: 3.2 ± 1.3 µM; IC50 [22]: 6.8 ± 1.8 µM; IC50 [23]: 6.2 ± 4.8 µM; IC50 [24]: 8 ± 1.3 µM; IC50 [25]: 2.6 to 14.2 µM; IC50 [26]: 0.2 ± 0.1 µM; IC50 [27]: 6.9 ± 1.7 µM; IC50 [28]: 3.8 ± 1.9 µM; IC50 [29]: 0.024 µM
C[C@@H]1CNC(=O)c2cc3ccc(C(=O)Nc4cnn(Cc5ccc(F)cc5F)c4)nc3n21 [Compound 23, (R)—N-(1-(2,4-difluorobenzyl)-1H-pyrazol-4-yl)-9-methyl-6-oxo-6,7,8,9-tetrahydropyrido[3′,2′:4,5]pyrrolo[1,2-a]pyrazine-2-carboxamide]	Precipitate	2.5 ± 0.8	9.7 ± 1.3	10.5 ± 1	19.8 ± 7.1	7.8 ± 2	1.1 ± 0.7	9.7 ± 1.8	10.7 ± 1.1	3 ± 2.4	5.1 ± 4	6 ± 4.9	1.1 to 19.8	8.6 ± 3	15 ± 6.1	7.2 ± 1.5	4.7 ± 4.9	1.8 ± 0.8	7.3 ± 3.4	3.6 ± 0.8	IC50 [21]: 1.1 ± 0.8 µM; IC50 [22]: 6.8 ± 1.8 µM; IC50 [23]: 2.1 ± 1.6 µM; IC50 [24]: 5 ± 2.4 µM; IC50 [25]: 1.1 to 15 µM; IC50 [26]: 0.3 ± 0.2 µM; IC50 [27]: 4 ± 0.8 µM; IC50 [28]: 2.4 ± 0.6 µM; IC50 [29]: 0.033 µM
